This note sets out measurements from patent publication US6743804B2, “Quinoline derivatives as NK3 antagonists” (SmithKline Beecham S p.A., priority 1996, dated 2004).

Each structure is given as a SMILES string. Where a name gives a salt, the structure may show the parent alone.

System in one data set: not given
Test: not given
For orientation: melting point means the temperature, or range, at which the solid turns liquid. `CCCCc1c(-c2ccccc2)nc2ccccc2c1C(=O)NC(CC)c1ccccc1` (centres unmarked) [Example 19] returned a melting point of 147 to 150 °C. The same measure, in the same setting: the value for `COC(=O)C(NC(=O)c1cc(-c2ccc[nH]2)nc2ccccc12)c1ccccc1` (centres unmarked) [Example 53] was 181 to 182 °C; that for `COC(=O)C(NC(=O)c1cc(-c2ccccc2OC)nc2ccccc12)c1ccccc1` (centres unmarked) [Example 24] was 124 to 125 °C. Same read-out and setting: for `O=C(NC(c1ccccc1)c1ccccc1)c1cc(-c2ccccc2)nc2ccccc12` [Example 84] the value was 182 to 184 °C; for `COC(=O)C(NC(=O)c1cc(-c2cc3ccccc3o2)nc2ccccc12)c1ccccc1` (centres unmarked) [Example 44], 240 to 241 °C. `COC(=O)C(NC(=O)c1cc(-c2ccc(O)cc2)nc2ccccc12)c1ccccc1` (centres unmarked) [Example 62] came in with a melting point of 226 to 227 °C. Same read-out and setting: for `COC(=O)C(c1ccccc1)N(C)C(=O)c1cc(-c2ccccc2)nc2ccccc12` (centres unmarked) [Example 50] the value was 128 to 129 °C; for `CCC(NC(=O)c1cc(-c2ccccc2)nc2ccccc12)c1ccc(Cl)c(Cl)c1` (centres unmarked) [Example 27], 193 to 194 °C. `COCC(NC(=O)c1cc(-c2ccccc2)nc2ccccc12)c1ccccc1` (centres unmarked) [Example 34] came in with a melting point of 144 to 145 °C.

Consider `COC(=O)C(NC(=O)c1cc(-c2ccc(Cl)c(Cl)c2)nc2ccccc12)c1ccccc1` (centres unmarked) [Example 67], for which the melting point is 164 to 165 °C. Same read-out and setting: for `CCc1c(-c2ccccc2)nc2ccccc2c1C(=O)NC(C(=O)OC)c1ccccc1` (centres unmarked) [Example 36] the value was 156 to 157 °C. Same read-out and setting: for `CC[C@H](NC(=O)c1c(C)c(-c2ccc(Br)cc2)nc2ccc(Br)cc12)c1ccccc1` [Example 41] the value was 230 to 231 °C; for `COC(=O)C(NC(=O)c1c2c(nc3ccccc13)-c1ccccc1CCC2)c1ccccc1` (centres unmarked) [Example 20], 186 to 188 °C. Regarding `CCC(NC(=O)c1c(-c2ccccc2)c(-c2ccccc2)nc2ccccc12)c1ccccc1` (centres unmarked) [Example 25], the melting point fell in the range of 198 to 200 °C. On the same count and under the same terms, for `COC(=O)C(NC(=O)c1cc(-c2ccc(C)cc2)nc2ccccc12)c1ccccc1` (centres unmarked) [Example 57] the value was 172 to 174 °C; for `COC(=O)C(NC(=O)c1cc(-c2ccccc2C)nc2ccccc12)c1ccccc1` (centres unmarked) [Example 59], 180 to 182 °C; for `COC(=O)[C@H](NC(=O)c1cc(-c2ccccc2)nc2ccccc12)C1=CCC=CC1` [Example 16], 120 to 122 °C. The molecule `COC(=O)C(NC(=O)c1cc(-c2ccc(Cl)cc2Cl)nc2ccccc12)c1ccccc1` (centres unmarked) [Example 82] displayed a melting point of 142 to 143 °C. Still for that read-out and setting: for `COC(=O)C(NC(=O)c1cc(-c2ccccc2)nc2ccc(OC)cc12)c1ccccc1` (centres unmarked) [Example 43] the value was 209 to 211 °C. Still for that read-out and setting: for `COC(=O)C(NC(=O)c1cc(-c2ccc(OC)cc2)nc2ccccc12)c1ccccc1` (centres unmarked) [Example 60] the value was 182 to 183 °C. The same measure, in the same setting: the value for `O=C(NC(c1ccccc1)C(F)(F)F)c1cc(-c2ccccc2)nc2ccccc12` (centres unmarked) [Example 46] was 180 to 181 °C; that for `COC(=O)C(NC(=O)c1cc(-c2ccccc2)nc2ccc(C)cc12)c1ccccc1` (centres unmarked) [Example 33] was 179 to 181 °C; that for `COC(=O)C(NC(=O)c1cc(-c2ccccc2F)nc2ccccc12)c1ccccc1` (centres unmarked) [Example 26] was 146 to 147 °C.

`COC(=O)[C@H](NC(=O)c1c(O)c(-c2ccccc2)nc2ccccc12)c1ccccc1` [Example 87] came in with a melting point of 125 to 127 °C.

`CCC(NC(=O)c1c(N2C(=O)c3ccccc3C2=O)c(-c2ccccc2)nc2ccccc12)c1ccccc1` (centres unmarked) [Example 39] showed a melting point of 201 to 202 °C. On the same count and under the same terms, for `CC[C@H](NC(=O)c1c(OC)c(-c2ccccc2)nc2ccccc12)c1ccccc1` [Example 47] the value was 132 to 134 °C. Still for that read-out and setting: the value for `COC(=O)C(NC(=O)c1cc(-c2ccccc2Cl)nc2ccccc12)c1ccccc1` (centres unmarked) [Example 78] was 175 to 178 °C; that for `CCC(NC(=O)c1c(OC)c(-c2ccccc2)nc2ccccc12)c1ccccc1` (centres unmarked) [Example 18] was 164 to 165 °C; that for `COC(=O)C(NC(=O)c1cc(-c2ccc3c(c2)OCO3)nc2ccccc12)c1ccccc1` (centres unmarked) [Example 63] was 186 to 187 °C. Same read-out and setting: the value for `CCCCC(NC(=O)c1cc(-c2ccccc2)nc2ccccc12)c1ccccc1` (centres unmarked) [Example 56] was 155 to 156 °C; that for `CC(C)(NC(=O)c1cc(-c2ccccc2)nc2ccccc12)c1ccccc1` [Example 64] was 173 to 174 °C; that for `O=C(NC(Cc1ccccc1)c1ccccc1)c1cc(-c2ccccc2)nc2ccccc12` (centres unmarked) [Example 45] was 194 to 196 °C. The molecule `CCc1c(-c2ccccc2)nc2ccccc2c1C(=O)N[C@@H](CC)c1ccccc1` [Example 48] returned a melting point of 118 to 120 °C. Molecule `COC(=O)C(NC(=O)c1cc(-c2cccc(Cl)c2)nc2ccccc12)c1ccccc1` (centres unmarked) [Example 77] registered a melting point of 161 to 163 °C. On the same count and under the same terms, the value for `CC(C)C(NC(=O)c1cc(-c2ccccc2)nc2ccccc12)c1ccccc1` (centres unmarked) [Example 72] was 165 to 166 °C; that for `CCCc1c(-c2ccccc2)nc2ccccc2c1C(=O)NC(CC)c1ccccc1` (centres unmarked) [Example 40] was 149 to 151 °C; that for `CCCC(NC(=O)c1cc(-c2ccccc2)nc2ccccc12)c1ccccc1` (centres unmarked) [Example 37] was 149 to 150 °C. On the same count and under the same terms, the value for `O=C(NC1(c2ccccc2)CCCC1)c1cc(-c2ccccc2)nc2ccccc12` [Example 61] was 164 to 165 °C; that for `NC[C@H](NC(=O)c1cc(-c2ccccc2)nc2ccccc12)c1ccccc1` [Example 68] was 139 to 141 °C.

Consider `C[C@H](O)[C@H](NC(=O)c1cc(-c2ccccc2)nc2ccccc12)c1ccccc1` [Example 17, (R,S)-N-[α-(1-hydroxyethyl)benzyl]-2-phenylquinoline-4-carboxamide], for which the melting point fell in the range of 204 to 205 °C. Still for that read-out and setting: the value for `COC(=O)C(NC(=O)c1c2c(nc3ccccc13)-c1ccccc1CC2)c1ccccc1` (centres unmarked) [Example 52] was 217 to 219 °C. Still for that read-out and setting: the value for `COC(=O)C(NC(=O)c1cc(-c2ccccc2)nc2ccc(Cl)cc12)c1ccccc1` (centres unmarked) [Example 35] was 197 to 199 °C. On the same count and under the same terms, the value for `O=C(NC(CO)c1ccccc1)c1cc(-c2ccccc2)nc2ccccc12` (centres unmarked) [Example 28] was 117 to 119 °C; that for `CCC(NC(=O)c1cc(-c2ccccc2)nc2ccccc12)c1ccc(C)cc1` (centres unmarked) [Example 65] was 160 to 162 °C; that for `COC(=O)C(NC(=O)c1cc(-c2ccccc2)nc2c(O)cccc12)c1ccccc1` (centres unmarked) [Example 81] was 178 to 180 °C. `COC(=O)C(NC(=O)c1cc(-c2ccccc2)nc2cc(Cl)ccc12)c1ccccc1` (centres unmarked) [Example 32] showed a melting point of 180 to 183 °C. The same measure, in the same setting: the value for `CCc1c(-c2ccccc2)nc2ccccc2c1C(=O)NC(CC)c1ccccc1` (centres unmarked) [Example 38] was 158 to 159 °C. Same read-out and setting: for `COC(=O)[C@H](NC(=O)c1cc(-c2ccccc2)nc2ccccc12)c1ccc(O)cc1` (as salt: HCl) [Example 83, (R)-N-[α-(methoxycarbonyl)-4-hydroxybenzyl]-2-phenylquinoline-4-carboxamide] the value was 140 °C (dec.). `CC[C@H](NC(=O)c1c(C)c(-c2ccccc2)nc2ccc(Br)cc12)c1ccccc1` [Example 42] registered a melting point of 179 to 180 °C.

`COC(=O)C(NC(=O)c1cc(-c2ccsc2)nc2ccccc12)c1ccccc1` (centres unmarked) [Example 51] registered a melting point of 169 to 171 °C. The same measure, in the same setting: the value for `CC[C@H](NC(=O)c1c(Br)c(-c2ccccc2)nc2ccccc12)c1ccccc1` [Example 71] was 119 to 122 °C. In turn, `COC(=O)C(NC(=O)c1cc(C2CCCCC2)nc2ccccc12)c1ccccc1` (centres unmarked) [Example 76] returned a melting point of 151 to 153 °C. Still for that read-out and setting: for `CCC(NC(=O)c1cc(-c2ccccc2)nc2ccccc12)c1ccc(Cl)cc1` (centres unmarked) [Example 49] the value was 177 to 178 °C. Same read-out and setting: for `COC(=O)C(NC(=O)c1cc(-c2nccs2)nc2ccccc12)c1ccccc1` (centres unmarked) [Example 54] the value was 209 to 211 °C. Turning to `COC(=O)C(NC(=O)c1cc(-c2cc[nH]c2)nc2ccccc12)c1ccccc1` (centres unmarked) [Example 66], the melting point lay in the range of 202 to 204 °C.

Regarding `COC(=O)C(NC(=O)c1c(C)c(-c2ccccc2)nc2ccccc12)c1ccccc1` (centres unmarked) [Example 30], the melting point lay within 180 to 181 °C. Still for that read-out and setting: the value for `COC(=O)C(NC(=O)c1cc(-c2ccccc2)nc2ccc(F)cc12)c1ccccc1` (centres unmarked) [Example 75] was 174 to 176 °C; that for `CC[C@H](NC(=O)c1c(Cl)c(-c2ccccc2)nc2ccccc12)c1ccccc1` [Example 70] was 137 to 139 °C; that for `COC(=O)C(NC(=O)c1cc(-c2ccccc2)nc2c(OC(C)=O)cccc12)c1ccccc1` (centres unmarked) [Example 80] was 193 to 194 °C.

The target of another data set is T1, guinea-pig NK3 receptors (Cavia porcellus, UniProt P30098).
T1 sequence (P30098 1-440): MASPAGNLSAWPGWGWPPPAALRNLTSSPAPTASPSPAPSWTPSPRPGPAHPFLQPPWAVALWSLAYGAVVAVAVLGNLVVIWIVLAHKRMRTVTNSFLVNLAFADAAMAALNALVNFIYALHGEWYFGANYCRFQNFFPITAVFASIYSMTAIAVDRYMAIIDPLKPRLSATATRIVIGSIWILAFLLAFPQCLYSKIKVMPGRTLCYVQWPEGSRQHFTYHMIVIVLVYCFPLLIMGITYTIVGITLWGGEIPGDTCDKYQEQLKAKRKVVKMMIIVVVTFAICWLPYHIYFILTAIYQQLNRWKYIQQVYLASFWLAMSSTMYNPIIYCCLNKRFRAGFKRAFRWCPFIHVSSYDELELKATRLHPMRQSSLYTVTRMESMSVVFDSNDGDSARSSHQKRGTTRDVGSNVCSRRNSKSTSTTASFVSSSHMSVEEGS
Description: Radioligand binding to guinea-pig NK3 receptors (guinea-pig cortex membranes, displacement of [3H]-Senktide or [125I]-[Me-Phe7]-NKB). (Displacement assays read how much labelled ligand stays bound in the presence of the test substance.)
Description: The activity of the compounds of the present invention, as NK3 ligands, is determined by their ability to inhibit the binding of the radiolabelled NK3 ligands, [^125I]-[Me-Phe^7]-NKB or [^3H]-Senktide, to guinea-pig and human NK3 receptors (Renzertti et al, 1991, Neuropeptide, 18, 104-114; Buell et al, 1992, FEBS, 299(1), 90-95; Chung et al, 1994, Biochem. Biophys. Res. Commun., 198(3), 967-972). The binding assays utilized allow the determination of the concentration of the individual compound required to reduce by 50% the [^125I]-[Me-Phe^7]-NKB and [^3H]-Senktide specific binding to NK3 receptor in equilibrium conditions (IC50). Binding assays provide for each compound tested a mean IC50 value of 2-5 separate experiments performed in duplicate or triplicate. […] The NK3-antagonist activity of the compounds of the present invention is determined by their ability to inhibit senktide-induced contraction of the guinea-pig ileum (Maggi et al, 1990, Br. J. Pharmacol., 101, 996-1000) and rabbit isolated iris sphincter muscle (Hall et al., 1991, Eur. J. Pharmacol., 199, 9-14) and human NK3 receptors-mediated Ca^++ mobilization (Mochizuki et al, 1994, J. Biol. Chem., 269, 9651-9658). Guinea-pig and rabbit in-vitro functional assays provide for each compound tested a mean KB value of 3-8 separate experiments, where KB is the concentration of the individual compound required to produce a 2-fold rightward shift in the concentration-response curve of senktide. Human receptor functional assay allows the determination of the concentration of the individual compound required to reduce by 50% (IC50 values) the Ca^++ mobilization induced by the agonist NKB.
A word on the Ki: it is the equilibrium dissociation constant of an inhibitor or competing ligand from its target. For the molecule `CC[C@H](NC(=O)c1c(C)c(-c2ccccc2)nc2ccccc12)c1ccccc1` [Example 22], the affinity, expressed as Ki, was 5.6 nM. The same measure, in the same setting: the value for `CC[C@H](NC(=O)c1c(OC)c(-c2ccccc2)nc2ccccc12)c1ccccc1` [Example 47] was 8.8 nM; that for `CCc1c(-c2ccccc2)nc2ccccc2c1C(=O)N[C@@H](CC)c1ccccc1` [Example 48] was 12 nM.
